Assay results reported in patent publication US20260193239A1, “NOVEL COMPOUNDS” (Hoffmann-La Roche Inc., priority 2023, published 2026).

Tests used:
[1] = biological target: T1, P-gp (Homo sapiens, UniProt P08183); assay: Transcellular P-gp assay; type: in vitro ADME; details: LLC-PK1 cells over-expressing human P-gp; for Papp: read-out: Permeation
T1 construct: expressed in transfected cells; host or cells: LLC-PK1 cells (porcine kidney epithelial cells)
Excerpt: The general assay uses transfected LLC-PK1 cells (porcine kidney epithelial cells) over-expressing human or mouse P-gp, cultured on 96 well semi-permeable filter membrane plates, where they form a polarized monolayer with tight junctions, and act as a barrier between the apical and basolateral compartment.
P-gp is expressed in the apical-facing membrane of the monolayer.
The tightness of the cell monolayer and functional activity of P-gp are confirmed by addition of a cell-impermeable marker, Lucifer yellow, and a reference P-gp substrate, edoxaban, respectively.

[2] = biological target: T2, NLRP3 (Homo sapiens, UniProt Q96P20); assay: THP-1 cells pyroptosis assay; type: cell-based; design: Seed THP-1 cells (25,000 cells/well) containing 1.0 μg/ml LPS; host or cells: THP-1 cells, LPS-primed and nigericin-stimulated; details: 1 μg/ml LPS, nigericin 5 μM, resazurin readout
T2 sequence (Q96P20 whole entry): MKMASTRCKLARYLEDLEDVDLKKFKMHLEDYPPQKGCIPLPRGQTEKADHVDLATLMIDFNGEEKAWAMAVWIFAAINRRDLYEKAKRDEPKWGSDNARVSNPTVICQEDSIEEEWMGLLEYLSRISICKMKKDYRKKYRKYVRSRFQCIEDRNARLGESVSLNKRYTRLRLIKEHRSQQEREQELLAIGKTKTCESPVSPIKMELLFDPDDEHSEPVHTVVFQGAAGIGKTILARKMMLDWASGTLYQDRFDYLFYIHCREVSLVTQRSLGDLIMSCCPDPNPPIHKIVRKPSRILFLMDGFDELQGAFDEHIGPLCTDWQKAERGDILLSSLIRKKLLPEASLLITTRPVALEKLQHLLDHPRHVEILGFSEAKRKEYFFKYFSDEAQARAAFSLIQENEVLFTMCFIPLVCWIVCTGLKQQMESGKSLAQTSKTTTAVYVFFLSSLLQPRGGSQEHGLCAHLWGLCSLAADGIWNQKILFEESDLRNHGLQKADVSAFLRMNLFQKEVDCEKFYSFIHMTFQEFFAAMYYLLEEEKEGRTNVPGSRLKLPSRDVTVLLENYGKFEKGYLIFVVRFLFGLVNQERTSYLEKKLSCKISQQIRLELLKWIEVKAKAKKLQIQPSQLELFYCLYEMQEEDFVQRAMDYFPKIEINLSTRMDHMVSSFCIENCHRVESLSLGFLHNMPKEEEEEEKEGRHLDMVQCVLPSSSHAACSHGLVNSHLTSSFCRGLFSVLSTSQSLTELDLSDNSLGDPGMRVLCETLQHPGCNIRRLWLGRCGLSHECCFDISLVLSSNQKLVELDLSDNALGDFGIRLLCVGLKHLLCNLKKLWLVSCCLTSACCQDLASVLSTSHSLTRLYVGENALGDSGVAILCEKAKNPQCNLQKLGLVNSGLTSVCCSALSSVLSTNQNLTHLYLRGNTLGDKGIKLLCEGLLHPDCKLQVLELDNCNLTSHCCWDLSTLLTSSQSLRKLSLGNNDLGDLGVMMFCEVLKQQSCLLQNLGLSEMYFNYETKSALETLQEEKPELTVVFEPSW
Procedure: The cells were routinely passaged and grown to confluency (~10^6 cells/ml). On the day of the experiment, THP-1 cells were harvested and resuspended into RPMI medium (without FBS). […] To this diluted cell solution was added LPS (Sigma #L4524) to give a 1 μg/ml Final Assay Concentration (FAC). 40 μl of the final preparation was aliquoted into each well of a 96-well plate. The plate thus prepared was used for compound screening.

[3] = biological target: T2, NLRP3; assay: Human whole blood IL-1β release assay; type: cell-based; design: Human whole blood in Li-heparin tubes was obtained from healthy donors; from tissue; host or cells: human whole blood from healthy donors, LPS-primed and nigericin-stimulated; details: 1 μg/ml LPS, nigericin 10 μM, IL-1β by AlphaLisa
Excerpt: For systemic delivery, the ability to inhibit NLRP3 when the compounds are present within the bloodstream is of great importance. For this reason, the NLRP3 inhibitory activity of a number of compounds in human whole blood was investigated in accordance with the following protocol.
Human whole blood in Li-heparin tubes was obtained from healthy donors from a volunteer donor panel.

T1 sequence (P08183 whole entry): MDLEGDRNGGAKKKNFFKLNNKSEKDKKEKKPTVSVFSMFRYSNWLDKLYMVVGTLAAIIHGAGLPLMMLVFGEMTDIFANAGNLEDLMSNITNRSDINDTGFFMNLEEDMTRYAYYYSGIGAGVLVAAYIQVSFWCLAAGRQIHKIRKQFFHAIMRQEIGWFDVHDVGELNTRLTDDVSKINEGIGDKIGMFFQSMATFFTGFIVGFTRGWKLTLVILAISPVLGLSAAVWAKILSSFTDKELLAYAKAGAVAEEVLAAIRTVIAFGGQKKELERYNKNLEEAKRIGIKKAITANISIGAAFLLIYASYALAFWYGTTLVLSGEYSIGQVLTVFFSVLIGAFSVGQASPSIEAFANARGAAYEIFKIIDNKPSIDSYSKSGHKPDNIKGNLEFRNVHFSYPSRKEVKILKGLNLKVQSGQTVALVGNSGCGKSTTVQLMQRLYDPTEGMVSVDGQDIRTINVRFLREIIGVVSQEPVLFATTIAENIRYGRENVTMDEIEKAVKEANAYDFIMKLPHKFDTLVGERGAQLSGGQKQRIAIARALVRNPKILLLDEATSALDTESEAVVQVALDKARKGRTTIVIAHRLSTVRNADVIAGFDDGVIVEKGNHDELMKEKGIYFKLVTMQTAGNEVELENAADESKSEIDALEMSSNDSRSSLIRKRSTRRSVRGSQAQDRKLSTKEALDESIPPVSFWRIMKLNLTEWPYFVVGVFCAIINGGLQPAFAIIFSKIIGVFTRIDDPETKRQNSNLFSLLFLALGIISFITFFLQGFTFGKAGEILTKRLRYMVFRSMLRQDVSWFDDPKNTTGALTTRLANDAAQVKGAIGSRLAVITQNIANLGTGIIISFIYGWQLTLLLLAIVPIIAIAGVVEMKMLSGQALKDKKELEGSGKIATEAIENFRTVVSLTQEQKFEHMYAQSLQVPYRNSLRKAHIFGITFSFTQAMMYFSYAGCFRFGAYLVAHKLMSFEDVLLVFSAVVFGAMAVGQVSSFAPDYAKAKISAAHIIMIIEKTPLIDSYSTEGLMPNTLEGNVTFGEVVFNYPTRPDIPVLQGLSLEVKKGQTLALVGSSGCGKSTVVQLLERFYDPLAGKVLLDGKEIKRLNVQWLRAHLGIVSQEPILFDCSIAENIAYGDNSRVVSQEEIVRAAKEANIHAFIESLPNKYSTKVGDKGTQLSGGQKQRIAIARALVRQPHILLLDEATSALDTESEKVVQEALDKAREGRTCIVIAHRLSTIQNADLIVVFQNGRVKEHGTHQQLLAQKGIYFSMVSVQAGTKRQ

Compound	efflux ratio [1]	Papp [1] [×10⁻⁶ cm/s]	IC50 [2] [nM]	IC50 [3] [nM]	Permeation [1] [×10⁻⁶ cm/s]
CCn1c(-c2c(C)cc3c(c2O)CCO3)nnc(N[C@@H]2CCCN(CCO)C2)c1=O (atropisomer, axis not shown) [Example 9b, (P or M)-4-ethyl-6-[[(3R)-1-(2-hydroxyethyl)-3-piperidyl]amino]-3-(4-hydroxy-6-methyl-2,3-dihydrobenzofuran-5-yl)-1,2,4-triazin-5-one]	2	0.8	118	204	
CCN1CCC[C@@H](Nc2nnc(-c3c(C)cc4c(c3O)CCO4)n(CC)c2=O)C1 (atropisomer, axis not shown) [Example 2b, P-4-ethyl-6-[[(3R)-1-ethyl-3-piperidyl]amino]-3-(4-hydroxy-6-methyl-2,3-dihydrobenzofuran-5-yl)-1,2,4-triazin-5-one]	8	3.7			
CCc1cc2c(c(O)c1-c1nnc(N[C@@H]3CCCN(CC)C3)c(=O)n1C)CCO2 (single isomer, unassigned) [Example 1b]	11	4.5			
CCN1CCC[C@@H](Nc2nnc(-c3ccc4c(c3O)CCO4)n(C)c2=O)C1 [Reference Example RE-A, 6-[[(3R)-1-Ethyl-3-piperidyl]amino]-3-(4-hydroxy-2,3-dihydrobenzofuran-5-yl)-4-methyl-1,2,4-triazin-5-one, reference compound]					24.9
CCN1CCC[C@@H](Nc2nnc(-c3c(C)cc4c(c3O)CCO4)n(C)c2=O)C1 (single isomer, unassigned) [Example 3b]	10	5.3			
CCN1CCC[C@@H](Nc2nnc(-c3c(CO)cc4c(c3O)CCO4)n(C)c2=O)C1 (atropisomer, axis not shown) [Example 5, 3-[4-Hydroxy-6-(hydroxymethyl)-2,3-dihydrobenzofuran-5-yl]-4-methyl-6-[[(3R)-1-ethyl-3-piperidyl]amino]-1,2,4-triazin-5-one]			139		
CCN1CCC[C@@H](Nc2nnc(-c3c(COC)cc4c(c3O)CCO4)n(C)c2=O)C1 (single isomer, unassigned) [Example 6a, (M or P)-3-[4-Hydroxy-6-(methoxymethyl)-2,3-dihydrobenzofuran-5-yl]-4-methyl-6-[[(3R)-1-ethyl-3-piperidyl]amino]-1,2,4-triazin-5-one]			> 1000		
CCc1cc2c(c(O)c1-c1nnc(N[C@@H]3CCCN(CCO)C3)c(=O)n1C)CCO2 (atropisomer, axis not shown) [Example 8b, P-3-(6-ethyl-4-hydroxy-2,3-dihydrobenzofuran-5-yl)-6-[[(3R)-1-(2-hydroxyethyl)-3-piperidyl]amino]-4-methyl-1,2,4-triazin-5-one]	1	0.9	16	64	
CCN1CCCC(Nc2nnc(-c3c(COC)cc4c(c3O)CCC4)n(C)c2=O)C1 [Example 7b, P-6-[[(3R)-1-ethyl-3-piperidyl]amino]-3-[4-hydroxy-6-(methoxymethyl)indan-5-yl]-4-methyl-1,2,4-triazin-5-one]	12	5.1			
CCN1CCC[C@@H](Nc2nnc(-c3c(CO)cc4c(c3O)CCO4)n(C)c2=O)C1 (atropisomer, axis not shown) [Example 5a, (M or P)-3-[4-Hydroxy-6-(hydroxymethyl)-2,3-dihydrobenzofuran-5-yl]-4-methyl-6-[[(3R)-1-ethyl-3-piperidyl]amino]-1,2,4-triazin-5-one]			84	103	
CCN1CCC[C@@H](Nc2nnc(-c3c(CO)cc4c(c3O)CCO4)n(C)c2=O)C1 (single isomer, unassigned) [Example 5b, (P or M)-3-[4-Hydroxy-6-(hydroxymethyl)-2,3-dihydrobenzofuran-5-yl]-4-methyl-6-[[(3R)-1-ethyl-3-piperidyl]amino]-1,2,4-triazin-5-one]			966		
CCN1CCC[C@@H](Nc2nnc(-c3c(C)cc(C(F)(F)F)cc3O)n(C)c2=O)C1 (atropisomer, axis not shown) [Reference Example RE-B, 6-[[(3R)-1-Ethyl-3-piperidyl]amino]-3-[2-hydroxy-6-methyl-4-(trifluoromethyl)phenyl]-4-methyl-1,2,4-triazin-5-one, reference compound]	7.6	5.6			
CCN1CCC[C@@H](Nc2nnc(-c3c(COC)cc4c(c3O)CCO4)n(C)c2=O)C1 (single isomer, unassigned) [Example 6b]	1	1.1	15	29	
